Like-named read-outs stand apart in the source and are kept apart here. Values belong to the compound of their own block, whether it stands above or below them.
What was measured:
[1] = test system: osteosarcoma (chondroblastic type) of the right proximal humerus, bilateral lung metastasis; assay: Clinical case Example 6: patient; format: in vivo, human; conditions: prior high-dose chemotherapy, 6 courses, Aug-Dec 2016
Protocol: A patient underwent the surgical removal of the osteosarcoma lesion in the right proximal humerus and the humeral head prosthesis replacement on Apr. 27, 2013. […] Doxorubicin and ifosfamide were administered after the surgery. […] Bone marrow support therapy was given during the intermission of chemotherapy until the end of chemotherapy in August 2013. […] 1. […] 2. There were enlarged lymph nodes in the right axilla with slight increase in metabolism. The patient was treated by being administered with CIK cells via infusion after the completion of the chemotherapy. At the end of 2015, the patient experienced pain in the upper part of the left humerus, no obvious mass was seen, and the patient suffered from the recurrent pain. […] 1. There was no sign of tumor recurrence in the right humerus after the surgery of the osteosarcoma of the right humerus and the comprehensive treatment, and there was a stripe-shaped hypermetabolic lesion in the upper part of the left humerus. 2. There was no sign of lymph node metastasis in the bilateral armpits. 3. […] On Jun. 7, 2016 and Jul. 1, 2016, the patient underwent 2 courses of doxorubicin and ifosfamide chemotherapy and the process went well. […] Microwave inactivation of the tumor of the left proximal humerus and the bone graft internal fixation was performed on Jul. 22, 2016. […]

[2] = test system: osteosarcoma of the right tibia, lung and pelvic metastasis; assay: Clinical case Example 7: patient
Protocol: A patient underwent the resection of the lesion on Nov. 7, 2016. On Nov. […] PORT implantation was performed under general anesthesia on Nov. 29, 2016, and the postoperative systemic intravenous adjuvant chemotherapy was performed. […] 1, 2016, and methotrexate (2 cycles of chemotherapy) was administered from Dec. 16, 2016 to Jan. 5, 2017. The CT re-examination performed on Jan. […] Ifosfamide (1 cycle of chemotherapy) was administered on Jan. […] The segmental resection of the tumor of the right proximal tibia, the joint replacement and the transposition of gastrocnemius muscle flap were performed under general anesthesia on Feb. 7, 2017. […] Ifosfamide (1 course of chemotherapy) was administered on Mar. […] Methotrexate was administered on Mar. […] 15, 2017. […] 4, 2017, ifosfamide chemotherapy was given on Jun. […] Methotrexate chemotherapy was given on Jul. […] Ifosfamide chemotherapy was given on Aug. […] The CT re-examination performed on Jan. […] A puncture biopsy of the mass of right femur was performed on Oct.
The patient was treated with anlotinib dihydrochloride capsule (12 mg) once a day via oral administration (2 weeks of continuous administration and 1 week of withdrawal being considered as one treatment cycle) from Nov. 16, 2018. […] 26, 2018.

[3] = test system: osteosarcoma of the right proximal fibula; assay: Clinical case Example 8: patient; format: in vivo; conditions: prior chemotherapy, 1 cycle
Protocol: A patient experienced a pain on the outer side of the right lower leg with no obvious predisposing cause for 6 months. The pain was persistent and unrelated to movements such as walking, and could not be alleviated after rest. The patient was neither diagnosed nor treated, and the pain was gradually aggravated and occurred at night. […] The patient went for consultation on Dec. 1, 2017, and an incision biopsy of the tumor of the limb was performed on December 5. […] On Apr.
Methotrexate chemotherapy was given for 1 day on Dec. 12, 2017, Feb. 7, 2018, May 4, 2018 and Jul. 6, 2018, respectively. IFO chemotherapy (1 cycle) was given during the following time periods: from Dec. 16, 2017 to […], from Mar. 2, 2018 to Mar. 7, 2018 (the therapeutic effect was evaluated as SD), from Apr. 18, 2018 to Apr. 22, 2018 (platelet reduction (Grade IV)), from Jun. 14, 2018 to Jun. 18, 2018 (the therapeutic effect was evaluated as SD), from Aug. 30, 2018 to Sep. 3, 2018 (the therapeutic effect was evaluated as PD). Cisplatin and amrubicin chemotherapy (1 cycle) was respectively given during the following time periods: from Jan. 17, 2018 to Jan. 20, 2018, from May 24, 2018 to May 27, 2018, and from Jul. 20, 2018 to Jul. 23, 2018 (the therapeutic effect was evaluated as SD). […]

[4] = test system: osteosarcoma cell lines 143B, U2OS, MG63 and SJSA; assay: Detection of cell cycle by flow cytometer; format: cell-based, Human; conditions: 0-4 μM, 24 h, PI staining
Protocol: 1.2.4 Detection of cell cycle by flow cytometer: 143B cells, U2OS cells, MG63 cells and SJSA cells were added to the liquid culture media containing different amount-of-substance concentrations of Anlotinib (0 μM, 1 μM, 2 μM, and 4 μM) for cultivation. The cells were collected after 24 h, centrifuged at 1000 r/min for 1 min, rinsed with PBS, and fixed with 70% ethanol. The PI staining solution of cell cycle analysis kit was added, the mixture was incubated in the dark at room temperature for 15 min, and the detection was carried out by using a flow cytometer. Images were analyzed by using ModFit software. The experiment was repeated 3 times.

[5] = test system: osteosarcoma cell lines 143B, U2OS, MG63 and SJSA; assay: Anti-proliferation effect on osteosarcoma cell lines (statement for all four lines); format: cell-based, Human; conditions: 0, 1, 2 or 4 μM for 24 or 48 hours; time- and concentration-dependent
Protocol: (§1) 1.2.2 Detection of cell proliferation by cck-8: 143B cells, U2OS cells, MG63 cells and SJSA cells in logarithmic growth phase were collected, rinsed with PBS, counted, and dispensed into separate tubes. The cells were seeded into a 96-well plate (3000 cells/well) and cultured for 24 h to allow for cell attachment. Anlotinib with different amount-of-substance concentrations (0 μM, 1 μM, 2 μM, 4 μM, 8 μM, 16 μM, 32 μM, and 64 μM) were then added, the mixture was incubated for 24 h, and then the detection was carried out. 100 μL of cck-8 reagent diluted 10-fold with DMEM culture medium was added into each well and the resulting mixture was incubated at 37° C. for 45 minutes. The absorbance value of the resultant in each well at 450 nm was detected by using a microplate reader.
In order to evaluate the anti-proliferation effects of Anlotinib on osteosarcoma cell lines 143B, U2OS, MG63 and SJSA, the osteosarcoma cell lines were treated with Anlotinib with a concentration of 0 μM, 1 μM, 2 μM or 4 μM for 24 hours or 48 hours.

[6] = test system: osteosarcoma cell lines 143B, U2OS, MG63 and SJSA; assay: Transwell cell migration and invasion; format: cell-based, Human; conditions: 1 μM, 24 hours
Protocol: 1.2.6 Experimental analysis of Transwell cell migration and invasion: Cells were seeded at the upper end of the Transwell chamber (5×10^4 cells/well). 143B cells, U2OS cells, MG63 cells and SJSA cells were treated with 1 μM Anlotinib. A culture medium containing 2% serum was added to the upper end of the Transwell chamber (4 hours of pretreatment with 10% matrigel was required in the invasion experiment), and a culture medium containing 10% serum was added to the lower end. After 24 hours, the cells were fixed with 4% paraformaldehyde, stained with crystal violet, and photographed under microscope.

[7] = test system: osteosarcoma cell lines 143B, U2OS, MG63 and SJSA; assay: Detection of cell apoptosis by flow cytometer (Annexin-V-FITC/PI), with or without cisplatin; format: cell-based, Human; conditions: 2 μM Anlotinib with 10 μM cisplatin (DDP), 24 h
Protocol: 1.2.5 Detection of cell apoptosis by flow cytometer: 143B cells, U2OS cells, MG63 cells and SJSA cells were added to the liquid culture media containing 2 μM Anlotinib (with or without 10 μM cisplatin (DDP)) for cultivation. The cells were collected after 24 h, centrifuged at 1000 r/min for 1 min, and rinsed with PBS. Afterwards, an Annexin-V-FITC/PI Cell Apoptosis Detection Kit was used to detect the apoptosis of cells. The cells were added to 100 μL of 1×Binding buffer and resuspended, 5 μL of AnnexinV-FITC and 2.5 μL of PI staining reagent were added, and the mixture was shaken and mixed evenly in the dark. The resultant was reacted at room temperature for 15 min, 300 μL of 1×Binding buffer was then added, and the resulting mixture was mixed evenly and detected by a flow cytometer. The experiment was repeated 3 times.

U2OS cells = assay: Detection of cell proliferation by cck-8; format: cell-based; conditions: Homo sapiens
Protocol: (§2) 1.2.1 Cell culture: Osteosarcoma cell lines 143B, […], MG63 and SJSA were cultured in DMEM complete culture medium (containing fetal bovine serum with a volume fraction of 10%, 0.1 g/L streptomycin, and 100 U/mL penicillin), and was incubated in a thermostatic incubator containing 5% CO2 (volume fraction) at 37° C. When about 85% cell confluence was reached, the cells were detached by using a mixed cell detachment solution containing 0.02% EDTA and 0.25% trypsin, and then the cells were collected, centrifuged at 1000 r/min for 3 min, and subcultured.
as §1, with “Anlotinib with different amount-of-substance concentrations (0 μM, 1 μM, 2 μM, 4 μM, 8 μM, 16 μM, 32 μM, and 64 μM) were then added, the mixture was incubated for 24 h, and then the detection was carried out.” left out

MG63 cells = assay: Detection of cell proliferation by cck-8; format: cell-based; conditions: Homo sapiens, MG-63
Protocol: as §2
as §1, with “Anlotinib with different amount-of-substance concentrations (0 μM, 1 μM, 2 μM, 4 μM, 8 μM, 16 μM, 32 μM, and 64 μM) were then added, the mixture was incubated for 24 h, and then the detection was carried out.” left out

SJSA cells = assay: Detection of cell proliferation by cck-8; format: cell-based; conditions: Homo sapiens
Protocol: as §2
as §1, with “Anlotinib with different amount-of-substance concentrations (0 μM, 1 μM, 2 μM, 4 μM, 8 μM, 16 μM, 32 μM, and 64 μM) were then added, the mixture was incubated for 24 h, and then the detection was carried out.” left out

143B cells = assay: Detection of cell proliferation by cck-8; format: cell-based; conditions: Homo sapiens
Protocol: as §2
as §1, with “Anlotinib with different amount-of-substance concentrations (0 μM, 1 μM, 2 μM, 4 μM, 8 μM, 16 μM, 32 μM, and 64 μM) were then added, the mixture was incubated for 24 h, and then the detection was carried out.” left out

bone marrow suppression grade [1]: Grade I to II | bone marrow suppression grade ([2]; human, in vivo): Grade II
SMILES: CN(Cc1cnc2nc(N)nc(N)c2n1)c1ccc(C(=O)N[C@@H](CCC(=O)O)C(=O)O)cc1 [Methotrexate, methotrexate]

SMILES: O=P1(NCCCl)OCCCN1CCCl (centres unmarked) [Ifosfamide, ifosfamide]
tolerability of chemotherapy ([2]; prior chemotherapy, 1 cycle, Jan. 19, 2017): no obvious gastrointestinal reaction and bone marrow suppression | leucocytopenia grade ([2]; prior chemotherapy, Aug. 16, 2017): Grade IV | leucocytopenia grade ([2]; prior chemotherapy, Jun. 19, 2017 (after doxorubicin and cisplatin Jun. 4, 2017)): Grade IV | leucocytopenia grade ([2]; prior chemotherapy, Mar. 10, 2017): Grade II | leucocytopenia grade ([2]; prior chemotherapy, May 3, 2017): Grade IV | platelet reduction grade ([3]; Apr. 18, 2018 to Apr. 22, 2018): Grade IV | therapeutic effect ([3]; Aug. 30, 2018 to Sep. 3, 2018): PD (progressive disease, specifically means that the sum of the diameters of the tumor target lesions increases by 20% or more from the baseline level)

IC50 (U2OS cells; 24 h, read-out: IC50 (24 h)): 41.3 µM | IC50 (U2OS cells; 48 h, read-out: IC50 (48 h)): 25.9 µM | IC50 (SJSA cells; 24 h, read-out: IC50 (24 h)): 25.7 µM | IC50 (SJSA cells; 48 h, read-out: IC50 (48 h)): 10.2 µM
SMILES: COc1cc2c(Oc3ccc4[nH]c(C)cc4c3F)ccnc2cc1OCC1(N)CC1 [Anlotinib, 1-[[[4-(4-fluoro-2-methyl-1H-indol-5-yl)oxy-6-methoxyquinolin-7-yl]oxy]methyl]cyclopropylamine]
cell cycle arrest [4]: G2/M cycle arrest occurred in cells | cells in G1 phase [4]: decrease of cells in G1 phase | effect on the proliferation of the osteosarcoma cell lines [5]: significant inhibitory effect | migration of osteosarcoma cell lines [6]: greatly inhibited | invasion of osteosarcoma cell lines ([6]; matrigel): greatly inhibited | apoptosis of osteosarcoma cell lines caused by cisplatin [7]: significantly enhancing | IC50 (MG63 cells; MG63, 24 h, read-out: IC50 (24 h)): 30.1 µM | IC50 (MG63 cells; MG63, 48 h, read-out: IC50 (48 h)): 14.8 µM | IC50 (143B cells; 24 h, read-out: IC50 (24 h)): 20.8 µM | IC50 (143B cells; 48 h, read-out: IC50 (48 h)): 7.95 µM
